#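 These data come from cells grown in 96-well plates and exposed to compound for 48 hours at five concentrations. The concentration for 50% growth inhibition is given as GI50.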 Calls of active or inactive are those of the source. Cut-off read from the data, not from the text of the source: active = GI50 up to about 1.1 µM and inactive = higher.
# Assays:
# Assay in all cases: inhibition of tumour cell growth, NCI panel, 48 h
# MDA-MB-435 = system: MDA-MB-435
# 786-0 = system: 786-0
# UACC-257 = system: UACC-257
# SK-MEL-5 = system: SK-MEL-5
# OVCAR-3 = system: OVCAR-3
# NCI-H460 = system: NCI-H460
# OVCAR-8 = system: OVCAR-8
# HCT-116 = system: HCT-116
# NCI/ADR-RES = system: NCI/ADR-RES
# EKVX = system: EKVX
# UO-31 = system: UO-31
# HCC 2998 = system: HCC 2998
# HOP-62 = system: HOP-62
# MDA-N = system: MDA-N
# MDA-MB-231 = system: MDA-MB-231
# SN12C = system: SN12C
# HCT-15 = system: HCT-15
# CCRF-CEM = system: CCRF-CEM
# COLO 205 = system: COLO 205
# SF-539 = system: SF-539
SMILES,GI50 (MDA-MB-435),GI50 (786-0),GI50 (UACC-257),GI50 (SK-MEL-5),GI50 (OVCAR-3),GI50 (NCI-H460),GI50 (OVCAR-8),GI50 (HCT-116),GI50 (NCI/ADR-RES),GI50 (EKVX),GI50 (UO-31),GI50 (HCC 2998),GI50 (HOP-62),GI50 (MDA-N),GI50 (MDA-MB-231),GI50 (SN12C),GI50 (HCT-15),GI50 (CCRF-CEM),GI50 (COLO 205),GI50 (SF-539)
O=C(O)/C(=C\c1ccc(O)cc1)c1cccc2ccccc12,> 100 µM (inactive),> 100 µM (inactive),> 100 µM (inactive),> 100 µM (inactive),64.4 µM (inactive),> 100 µM (inactive),> 100 µM (inactive),> 100 µM (inactive),> 100 µM (inactive),90.6 µM (inactive),> 100 µM (inactive),> 100 µM (inactive),35 µM (inactive),> 100 µM (inactive),> 100 µM (inactive),> 100 µM (inactive),> 100 µM,–,–,–
O=C1c2ccccc2C(=O)N1C1(C(=O)NC2(C(=O)O)CCCC2)CCCC1,> 100 µM (inactive),> 100 µM (inactive),> 100 µM (inactive),> 100 µM (inactive),> 100 µM (inactive),–,> 100 µM (inactive),> 100 µM (inactive),> 100 µM (inactive),> 100 µM (inactive),> 100 µM (inactive),> 100 µM (inactive),> 100 µM (inactive),> 100 µM (inactive),> 100 µM (inactive),> 100 µM (inactive),> 100 µM,> 100 µM (inactive),> 100 µM (inactive),–
CN(C(=O)C1=CCC2(CC1)OCCO2)c1ccccc1OS(=O)(=O)C(F)(F)F,> 100 µM (inactive),24.3 µM (inactive),> 100 µM (inactive),> 100 µM (inactive),> 100 µM (inactive),85.3 µM (inactive),81.5 µM (inactive),> 100 µM (inactive),53.3 µM (inactive),> 100 µM (inactive),> 100 µM (inactive),> 100 µM (inactive),27.4 µM (inactive),> 100 µM (inactive),> 100 µM (inactive),> 100 µM (inactive),59 µM,43.2 µM (inactive),> 100 µM (inactive),–
N#Cc1nc(C2CC2)oc1N,> 100 µM (inactive),> 100 µM (inactive),> 100 µM (inactive),–,> 100 µM (inactive),–,> 100 µM (inactive),> 100 µM (inactive),> 100 µM (inactive),> 100 µM (inactive),–,> 100 µM (inactive),> 100 µM (inactive),> 100 µM (inactive),> 100 µM (inactive),> 100 µM (inactive),> 100 µM,38.4 µM (inactive),> 100 µM (inactive),> 100 µM (inactive)
Cc1cc(C)c(S(=O)(=O)N(CCCN)OCCCON(CCCN)S(=O)(=O)c2c(C)cc(C)cc2C)c(C)c1,2.03 µM (inactive),2.33 µM (inactive),1.82 µM (inactive),4.55 µM (inactive),2.03 µM (inactive),1.67 µM (inactive),3.68 µM (inactive),1.75 µM (inactive),18.9 µM (inactive),5.92 µM (inactive),16.7 µM (inactive),–,1.91 µM (inactive),1.78 µM (inactive),1.77 µM (inactive),3.91 µM (inactive),18.2 µM,2.3 µM (inactive),1.78 µM (inactive),2.17 µM (inactive)
O=C(O)c1nc2ccc(C(F)(F)F)cc2nc1Nc1ccc(F)cc1,17.6 µM (inactive),20 µM (inactive),22.3 µM (inactive),18 µM (inactive),12.2 µM (inactive),16.1 µM (inactive),17.2 µM (inactive),15.1 µM (inactive),20.2 µM (inactive),20.7 µM (inactive),12 µM (inactive),15.7 µM (inactive),17.1 µM (inactive),27.5 µM (inactive),25.1 µM (inactive),26.8 µM (inactive),20.7 µM,–,19.5 µM (inactive),–
